Structures can show the parent of a compound that is named as a salt. Where two headings read alike, the source gives them in different places.
Assays:
[1] = tested on: A431; assay: A431 cytotoxicity; settings: Homo sapiens
[2] = biological target: EGFR (Homo sapiens, UniProt P00533); assay: Kinase inhibition, whole-cell assay, EGFR; type: cell-based
[3] = tested on: MDA-MB-435 cancer cells; assay: Antiproliferative effect in MDA-MB-435 cancer cells (SRB assay); type: cell-based
[4] = biological target: PDGFR-β (Homo sapiens, UniProt P09619); assay: Kinase inhibition, whole-cell assay, PDGFR-β; type: cell-based
Sequence of PDGFR-β (P09619 33-1106, species assumed): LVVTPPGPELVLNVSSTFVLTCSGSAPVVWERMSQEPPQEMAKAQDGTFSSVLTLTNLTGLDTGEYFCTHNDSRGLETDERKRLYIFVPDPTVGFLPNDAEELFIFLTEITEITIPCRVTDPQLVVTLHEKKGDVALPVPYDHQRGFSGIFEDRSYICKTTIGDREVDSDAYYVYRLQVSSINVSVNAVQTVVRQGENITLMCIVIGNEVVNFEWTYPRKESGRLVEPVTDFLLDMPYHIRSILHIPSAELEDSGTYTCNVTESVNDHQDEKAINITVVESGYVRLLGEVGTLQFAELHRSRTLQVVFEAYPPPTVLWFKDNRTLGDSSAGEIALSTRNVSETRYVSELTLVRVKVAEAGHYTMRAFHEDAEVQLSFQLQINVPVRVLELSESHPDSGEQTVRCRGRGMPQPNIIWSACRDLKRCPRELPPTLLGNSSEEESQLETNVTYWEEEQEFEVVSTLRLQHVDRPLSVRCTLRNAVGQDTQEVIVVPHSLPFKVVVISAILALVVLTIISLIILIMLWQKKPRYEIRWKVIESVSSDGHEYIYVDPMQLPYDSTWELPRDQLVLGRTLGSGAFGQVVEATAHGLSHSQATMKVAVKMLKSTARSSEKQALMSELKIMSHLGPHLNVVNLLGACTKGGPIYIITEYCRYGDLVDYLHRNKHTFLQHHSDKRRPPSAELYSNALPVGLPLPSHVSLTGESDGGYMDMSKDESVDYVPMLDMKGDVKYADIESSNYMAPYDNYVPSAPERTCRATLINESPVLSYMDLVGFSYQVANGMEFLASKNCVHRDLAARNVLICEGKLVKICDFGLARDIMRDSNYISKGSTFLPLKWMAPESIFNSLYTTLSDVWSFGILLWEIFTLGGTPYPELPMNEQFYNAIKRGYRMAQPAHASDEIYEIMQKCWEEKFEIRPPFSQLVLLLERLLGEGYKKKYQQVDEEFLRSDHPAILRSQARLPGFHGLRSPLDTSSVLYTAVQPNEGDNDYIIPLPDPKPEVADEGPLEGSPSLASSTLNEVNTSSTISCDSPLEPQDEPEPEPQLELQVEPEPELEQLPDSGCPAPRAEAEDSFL

[5] = tested on: A-10 cells; assay: Microtubule depolymerization, cell-based phenotypic assay in A-10 cells
[6] = tested on: MDA-MB-435 xenograft; assay: MDA-MB-435 xenograft trial; settings: IP 75 mg/kg; for adverse effects / toxicity in xenograft trial: cumulative dosing
[7] = tested on: RT16 (FRα); assay: Proliferation inhibition, FRα-expressing RT16 cells; type: cell-based, Chinese hamster
Text: (§1) AGF215, AGF234 and AGF263 were compared to AGF23 as inhibitors of proliferation of engineered Chinese hamster ovary (CHO) cells expressing human PCFT (R2/PCFT4), FRα (RT16), or RFC (PC43-10).

[8] = tested on: D4 (FRβ); assay: Proliferation inhibition, FRβ-expressing D4 cells; type: cell-based
[9] = tested on: PC43-10 (RFC); assay: Proliferation inhibition, RFC-expressing PC43-10 cells; type: cell-based, Chinese hamster; settings: Table 11
Text: as §1

[10] = tested on: KB (RFC/FRα/PCFT); assay: Growth inhibition of KB tumor cells; type: cell-based, human
Description: Cell proliferation was assayed with CellTiter-Blue™ with a fluorescent plate reader.

[11] = tested on: β-III overexpressing HeLa; assay: Antiproliferative activity, β-III overexpressing HeLa; type: cell-based; settings: Homo sapiens, HeLa; Table 7; read-out: IC50 ± SD β-III overexpressing HeLa
Text: (§2) Another clinically relevant drug resistance mechanism of tubulin-targeting agents is the overexpression of the βIII isotype of tubulin.

[12] = tested on: Parental SK-OV-3; assay: Antiproliferative activity, parental SK-OV-3; type: cell-based; settings: Homo sapiens, Table 6, read-out: IC50 ± SD Parental SK-OV-3
[13] = tested on: Pgp expressing SK-OV-3 MDR1-6-6; assay: Antiproliferative activity, Pgp expressing SK-OV-3 MDR1-6-6; type: cell-based; settings: Homo sapiens, SK-OV-3; Table 6; read-out: IC50 ± SD Pgp expressing SK-OV-3 MDR1-6-6
[14] = tested on: Parental HeLa; assay: Antiproliferative activity, parental HeLa; type: cell-based; settings: Homo sapiens, Table 7, read-out: IC50 ± SD Parental HeLa
Text: as §2

[15] = A-431, read-out: A431 cytotoxicity, Table 1, IC50 ± SD
[16] = Table 1, IC50 ± SD, read-out: Kinase inhibition IC50 [whole-cell assays] EGFR
[17] = Homo sapiens, MDA-MB-435, read-out: MDA-MB-435 IC50
[18] = Table 1, IC50 ± SD, read-out: Kinase inhibition IC50 [whole-cell assays] PDGFR-β
[19] = Rattus norvegicus, A10, read-out: Microtubule depolymerization EC50
[20] = Table 3, read-out: MDA-MB-435 IC50
[21] = Table 3, read-out: Microtubule depolymerization EC50
[22] = with folic acid (+FA), read-out: IC50 FRα RT16 (+FA)
[23] = Table 11, read-out: IC50 FRβ D4
[24] = with folic acid (+FA), read-out: IC50 FRβ D4 (+FA)
[25] = Table 11, read-out: IC50 RFC/FRα/PCFT KB
[26] = with folic acid (+FA), read-out: IC50 RFC/FRα/PCFT KB (+FA)
[27] = Rattus norvegicus, A10, read-out: EC50 in A-10 cells (Concentration that causes 50% tubulin loss in A-10 cells), Table 4, Section II compounds
[28] = Homo sapiens, MDA-MB-435, Table 4, Section II compounds, SRB assay, read-out: IC50 ± SD (MDA-MB-435) Cancer cells

Sequence of EGFR (P00533 25-1210, species assumed): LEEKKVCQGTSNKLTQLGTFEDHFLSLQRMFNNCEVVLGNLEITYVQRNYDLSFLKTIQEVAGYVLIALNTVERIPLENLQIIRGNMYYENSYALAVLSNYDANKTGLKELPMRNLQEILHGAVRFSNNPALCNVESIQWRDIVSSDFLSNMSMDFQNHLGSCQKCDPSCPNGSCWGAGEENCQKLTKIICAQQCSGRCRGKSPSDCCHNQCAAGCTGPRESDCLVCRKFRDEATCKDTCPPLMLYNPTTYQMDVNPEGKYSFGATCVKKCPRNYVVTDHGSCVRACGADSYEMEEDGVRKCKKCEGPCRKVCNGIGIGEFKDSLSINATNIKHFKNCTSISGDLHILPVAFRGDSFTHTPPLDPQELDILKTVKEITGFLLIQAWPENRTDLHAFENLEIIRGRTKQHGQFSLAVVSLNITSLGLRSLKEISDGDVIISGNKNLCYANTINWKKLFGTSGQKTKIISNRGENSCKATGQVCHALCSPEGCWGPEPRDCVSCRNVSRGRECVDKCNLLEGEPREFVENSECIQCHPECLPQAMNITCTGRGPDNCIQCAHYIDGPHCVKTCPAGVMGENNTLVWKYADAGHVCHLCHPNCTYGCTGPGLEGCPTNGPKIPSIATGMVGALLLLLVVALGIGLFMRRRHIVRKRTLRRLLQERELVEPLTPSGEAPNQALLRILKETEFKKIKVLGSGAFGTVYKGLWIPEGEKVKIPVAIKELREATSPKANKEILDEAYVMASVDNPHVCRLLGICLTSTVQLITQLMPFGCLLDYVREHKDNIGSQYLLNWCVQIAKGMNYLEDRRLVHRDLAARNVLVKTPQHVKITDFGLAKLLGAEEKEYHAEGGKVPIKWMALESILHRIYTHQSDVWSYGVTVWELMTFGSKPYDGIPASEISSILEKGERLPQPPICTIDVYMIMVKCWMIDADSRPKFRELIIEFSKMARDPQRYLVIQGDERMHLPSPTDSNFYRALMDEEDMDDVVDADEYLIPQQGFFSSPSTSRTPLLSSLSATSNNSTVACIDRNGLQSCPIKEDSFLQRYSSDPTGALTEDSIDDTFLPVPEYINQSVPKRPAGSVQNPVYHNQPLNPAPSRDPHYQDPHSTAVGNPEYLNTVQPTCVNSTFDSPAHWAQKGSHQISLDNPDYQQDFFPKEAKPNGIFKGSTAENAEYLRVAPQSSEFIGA

COc1ccc(N(C)c2nc(C)nc3cc[nH]c23)cc1 [1•HCl]
IC50 [1, 15]: 0.215 ± 0.0301 µM
IC50 [2, 16]: 0.0295 ± 0.0031 µM
IC50 [3, 17]: 0.096 ± 0.0053 µM
IC50 [4, 18]: 0.25 ± 0.0206 µM
EC50 [5, 19]: 1.2 µM

COc1ccc(N(C)c2nc(C)nc3ccn(C)c23)cc1 [2•HCl]
final average tumor mass compared to the vehicle ([6]; Day 15): statistically significant (p<0.001) lower final average tumor mass
mouse weight change ([6]; compared to the vehicle): recoverable weight loss
adverse effects / toxicity in xenograft trial ([6]; 75 mg/kg): noticeable adverse effects on the central nervous system
adverse effects / toxicity in xenograft trial ([6]; listed as AG 141, 75 mg/kg): severe seizures in two mice
adverse effects / toxicity in xenograft trial ([6]; listed as AG141, 75 mg/kg): unacceptable cumulative CNS toxicities
tumor growth during the trial ([6]; nude mice): inhibited tumor growth
IC50 [1, 15]: 0.0088 ± 0.0009 µM
IC50 ([1]; A-431, read-out: A431 cytotoxicity, Table 3b, unit inferred): 0.107 ± 0.018 µM
IC50 [2, 16]: 0.0252 ± 0.00041 µM
IC50 ([2]; Table 3b, unit inferred, read-out: EGFR kinase inhibition): 0.0893 ± 0.0092 µM
IC50 [3, 17]: 0.0043 ± 0.0003 µM
IC50 ([3]; Homo sapiens, read-out: IC50 ± SD in MDA-435 Cells): 0.0043 ± 0.0003 µM
IC50 [4, 18]: 0.067 ± 0.0102 µM
IC50 ([4]; Table 3b, unit inferred, read-out: PDGFR kinase inhibition): > 0.2 µM
EC50 ([5]; Rattus norvegicus, A10, read-out: EC50 for Microtubule Depolymerization in A · 10 Cells): 0.0074 µM
EC50 [5, 19]: 0.0074 µM

CSc1ccc(N(C)c2nc(C)nc3cc[nH]c23)cc1 [4•HCl]
IC50 [3, 20]: 0.0499 ± 0.0104 µM
EC50 [5, 21]: 1.1 µM

CSc1ccc(N(C)c2nc(C)nc3ccn(C)c23)cc1 [5•HCl]
IC50 [3, 20]: 0.0062 ± 0.001 µM
EC50 [5, 21]: 0.023 µM

COc1ccc(N(C)c2nc(C)nc3ccn(C(C)C)c23)cc1.Cl [AG174]
antitumor effects ([6]; MDA-MB-435 xenograft): highly statistically significant (p<0.001) antitumor effects

Nc1nc2[nH]c(CCCOc3ccc(C(=O)N[C@@H](CCC(=O)O)C(=O)O)cc3)cc2c(=O)[nH]1 [AGF215]
IC50 [7, 22]: > 1 µM
IC50 [8, 23]: 0.0038 µM
IC50 [8, 24]: > 1 µM
IC50 [9]: > 1 µM
IC50 RFC PC43-10 [9]: inactive
IC50 [10, 25]: 0.00154 µM
IC50 [10, 26]: 0.767 µM

Nc1nc2[nH]c(CCCNc3ccc(C(=O)N[C@@H](CCC(=O)O)C(=O)O)cc3)cc2c(=O)[nH]1 [AGF234]
IC50 ([7]; Table 11, read-out: IC50 FRα RT16): 0.0014 µM
IC50 [7, 22]: 0.136 µM
IC50 [8, 23]: 0.00084 µM
IC50 [8, 24]: 0.316 µM
IC50 [9]: 0.67 µM
IC50 RFC PC43-10 [9]: low level of activity
IC50 [10, 25]: 0.00074 µM
IC50 [10, 26]: 0.938 µM

Nc1nc2[nH]c(CCCSc3ccc(C(=O)N[C@@H](CCC(=O)O)C(=O)O)cc3)cc2c(=O)[nH]1 [AGF263]
IC50 [9]: > 1 µM
IC50 RFC PC43-10 [9]: inactive
IC50 [10, 25]: 0.00022 µM
IC50 [10, 26]: 0.6 µM

Cc1nc2c(c(N(C)c3ccc(S(C)(=O)=O)cc3)n1)CCC2 [Compd 5]
EC50 [5, 27]: > 10 µM

CO[C@H]1CC[C@H](N(C)c2nc(C)nc3c2CCC3)CC1 [Compd 13]
EC50 [5, 27]: > 10 µM

COc1ccc(N(C)c2nc(C)nc3c2CCC3)cc1 [Compound 1]
IC50 [11]: 0.0096 ± 0.0009 µM
IC50 [12]: 0.0113 ± 0.0002 µM
IC50 [13]: 0.0164 ± 0.0004 µM
IC50 [14]: 0.012 ± 0.0012 µM
IC50 [3, 28]: 0.007 ± 0.0007 µM
EC50 [5, 27]: 0.0259 µM

CSc1ccc(N(C)c2nc(C)nc3c2CC(C)C3)cc1 (stereo not shown) [Compound 2]
IC50 [11]: 0.0148 ± 0.0015 µM
IC50 [12]: 0.0212 ± 0.004 µM
IC50 [13]: 0.0227 ± 0.0027 µM
IC50 [14]: 0.0196 ± 0.002 µM
IC50 [3, 28]: 0.015 ± 0.0065 µM
EC50 [5, 27]: 0.116 µM

Cc1nc2c(c(N(C)c3ccc4c(c3)CCO4)n1)CCC2 [Compound 6]
IC50 [11]: 0.015 ± 0.001 µM
IC50 [12]: 0.0187 ± 0.0012 µM
IC50 [13]: 0.0298 ± 0.0056 µM
IC50 [14]: 0.016 ± 0.001 µM

COc1ccc(N(C)c2nc(C)nc3c2CCC3)cc1C [Compound 7]
IC50 [11]: 0.0188 ± 0.0016 µM
IC50 [12]: 0.0239 ± 0.0025 µM
IC50 [13]: 0.0475 ± 0.0024 µM
IC50 [14]: 0.023 ± 0.001 µM

From patent US10239880B2, “Cyclopenta[d]pyrimidines and substituted cyclopenta[d]pyrimidines as antitubulin and microtubule targeting agents, monocyclic pyrimidines as tubulin inhibitors, and pyrrolopyrimidines as targeted antifolates and tubulin and multiple receptor tyrosine kinase inhibition and antitumor agents” (Duquesne University of the Holy Spirit, priority 2015, dated 2019)
